No end group written: not given here.

These results are taken from US9359405B2, “Antagonists of the interleukin-1 receptor” (Phlogo ApS, priority 2011, dated 2016).

For test [1], the system named is IL1β-activated AMJ2-C8 macrophage cells. Put plainly: TNFα secretion by IL1β-activated macrophages (L929/MTS bioassay). Conditions: IL1β 1.2 μM. In kind it is cell-based. How it is done: The Ilantafin peptide or IL1Ra or IL1RI was added to cultures of macrophages (AMJ2-C8) seeded in 6-well multi-dishes (Nunc) (2.5×10^5 cells/well). After 24 h of incubation at 37° C., IL1β (1.2 μM) was added to the cultures to activate the macrophages. L929 cells were seeded in a 96-well plate at a density of 2×10^5 cells/mL. Both cell cultures were incubated for 24 h at 37° C. Conditioned medium from the macrophage cultures was collected and added to the fibroblast cultures together with 0.6 μg/well actinomycin. D (Sigma-Aldrich). Finally, after 24 h of incubation at 37° C., 20 μl of 3-(4,5-dimethylthiazol-2-yl)-5-(3-carboxymethoxyphenyl)-2-(4-sulfophenyl)-2H-tetrazolium (MTS) (Promega, Madison, Wis., USA) was added to each well and the plates were incubated protected from light, at 37° C., for ˜45 min and the optical density was measured at 490 nm in a Sunrise absorbance reader (Tecan, Männedorf, Switzerland). In order to calculate the amount of TNF-α in the conditioned medium, a standard curve was obtained by treating fibroblasts with different concentrations of TNF-α (R&D systems, Minneapolis, Minn., USA).

Test [2] concerns NF-κB activated by IL1β (IL1RI signaling), HEK-Blue IL1β cells. Nature of the test: IL1RI signaling assay, HEK-Blue IL1β reporter cells (NF-κB/SEAP). In kind it is cell-based. Conditions: IL1β 1.2 μM. The source says:
IL1RI signaling assay: Commercially available Blue™ Cytokine Reporter Cell technology from InvivoGen (Denmark distributor: Sigma-Aldrich Denmark) was used. It is represented by an expanding family of engineered cell lines designed to provide a simple, rapid, and reliable method of monitoring the activation of signaling pathways induced by key cytokines. HEK-Blue™ IL1β cells are specifically engineered to selectively respond to IL1β, and they feature the secreted embryonic alkaline phosphatase (SEAP) reporter gene under the control of an NF-κB-inducible promoter. […] A target/receptor-specificity of the Ilantafin effect was verified employing HEK-Blue™ IL6 cells.

For test [3], the system named is collagen-induced arthritis (CIA). Put plainly: Collagen-induced arthritis in rats, treatment from day 15 (Example 7). In kind it is in vivo, rat. Conditions: 3.3 and 10 mg/kg s.c. daily from day 15. The source says: Rheumatoid arthritis is a chronic, inflammatory, systemic autoimmune disease that affects about 1% of the general population in Western countries. Collagen-induced arthritis (CIA) in rats is a widely employed animal model for the screening of anti-inflammatory compounds. Collagen bovine, type II (CII, Cat.no.20021, Lot 090209, Chondrex, USA), Complete Freund's Adjuvant, containing 0.1% of Mycobacterium tuberculosis (CFA, Cat.no. F5581, Lot 049K8700, Sigma-Aldrich), Incomplete Freund's Adjuvant (IFA, Cat.no. F5506, Lot 058K8702, Sigma). PBS (Panum Institute, Copenhagen University). Isofluran (Baxter). Animals were immunized twice: on day 0 (CII+CFA) and on day 10 (CII+IFA, booster). On day 15 the mean clinical score reached a value of 5.0 and all animals were divided into 3 groups so that the severity of disease (mean clinical score) in all groups was almost equal. The peptide (two doses, 3.3 and 10 mg/kg) was administered subcutaneously daily starting at day 15. The clinical evaluation of the arthritis severity was assessed using the following grading system: O— no redness or swelling in foot and palm; 1—slight swelling or redness in metatarsophalangeal joint and ankle joint foot or palm; 2—progressed swelling/inflammation and redness from ankle to mid foot or in entire palm; 3—swelling/inflammation of entire foot except toes; 4—swelling and inflammation of entire foot including toes.

The target of the next test is T1, IL1RI (Homo sapiens, UniProt P14778).
T1 construct: The recombinant protein comprising the whole extracellular part of IIL1RI was immobilised on the surface of a CM5 sensor chip
Nature of the test: Kb (s^-1). The source says: Table printed on a drawing sheet, Figure 3
Head of the field: Kb (s^-1)
First copying reader's note: Rate and affinity constants for binding to IL1RI; each cell holds the value with its ± error, and Ilantafin is a peptide while ILRa and IL1β are proteins.

T1 sequence (P14778 18-336): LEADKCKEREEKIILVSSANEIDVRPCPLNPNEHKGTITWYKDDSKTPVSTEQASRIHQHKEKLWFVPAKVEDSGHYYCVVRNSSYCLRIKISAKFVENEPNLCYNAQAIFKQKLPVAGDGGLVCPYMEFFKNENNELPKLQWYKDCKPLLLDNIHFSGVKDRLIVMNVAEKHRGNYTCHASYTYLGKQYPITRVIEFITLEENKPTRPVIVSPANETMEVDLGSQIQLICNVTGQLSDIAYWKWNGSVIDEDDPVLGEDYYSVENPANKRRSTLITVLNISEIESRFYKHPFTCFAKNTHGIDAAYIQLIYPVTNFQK

In general, koff refers to the first-order rate constant of dissociation. A low value points to slow dissociation. In the case of SGRKSSKMQA [Ilantafin], in test [1], the “inhibition of TNFα secretion by IL1β-activated macrophages” value was “in a dose dependent manner inhibits the IL1β-induced activation of macrophages”. The “inhibition of NF-κB activation induced by IL1β” value in test [2] is “inhibits activation of macrophages”. In test [3], the “clinical manifestations (clinical score) of CIA” value was “abrogates an increase in clinical manifestations of CIA in rats”. This sequence registered an off-rate constant (koff) on IL1RI of 0.000753 s⁻¹.
